Assay results as given in publication PMC12043106, “Insight into antistaphylococcal effect of chlorinated 1-hydroxynaphthalene-2-carboxanilides” (ADMET & DMPK, 2025).
≈ marks a conversion by molar mass, not a printed value. Where “and” joins values, the source holds several entries; their conditions need not be identical. Identical values can stand only once.

What was measured:
[1] = in vitro
Experimental: Cytotoxicity of the compounds was determined using an LDH assay kit (Roche, Mannheim, Germany) as described previously. Human monocytic leukemia THP-1 cells (European Collection of Cell Cultures, Salisbury, UK) were exposed for 24 h at 37 °C to various compound concentrations ranging from 0.37 to 30 μM in RPMI 1640 medium. For LDH assays, cells were seeded into 96-well plates (5×10^4 cells/well in 100 μL of culture medium) in triplicate in serum-free RPMI 1640 medium and measurements were taken 24 h after the treatment with the compounds. The maximum concentration of DMSO (Sigma) in the assays never exceeded 0.1 %. […] The median lethal dose values, LC50, were deduced through the production of a dose-response curve. All data from three independent experiments were evaluated using GraphPad Prism 5.00 software.

[2] = tested on: S. aureus ATCC 29213; assay: Antistaphylococcal screening, microtitration broth MIC; type: cell-based, Staphylococcus aureus; details: for MIC: Staphylococcus aureus, ATCC29213, S. aureus ATCC 29213, 24 h, 37 °C; for Antistaphylococcal activity in words: susceptible strain and resistant isolates
Experimental: (§1) In vitro antistaphylococcal activity of the synthesized compounds was evaluated against three clinical isolates of methicillin-resistant S. aureus: clinical isolate of animal origin, MRSA 63718 (Department of Infectious Diseases and Microbiology, Faculty of Veterinary Medicine, University of Veterinary Sciences Brno, Czech Republic), carrying the mecA gene; and MRSA SA 630 and MRSA SA 3202 [54] (National Institute of Public Health, Prague, Czech Republic), both of human origin. […] All isolates were tested for the presence of the mecA gene encoding methicillin resistance. […] Vancomycin-susceptible methicillin-susceptible S. aureus (VS-MSSA) ATCC 29213, obtained from the American Type Culture Collection, was used as the reference and quality control strain. The minimum inhibitory concentrations (MICs) were evaluated by the microtitration broth method according to the CLSI [58, 59] with some modifications. The compounds were dissolved in DMSO (Sigma, St. Louis, MO, USA) to get a concentration […] and diluted in a microtitration plate in a medium Cation Adjusted Mueller-Hinton (CaMH, Oxoid, Basingstoke, UK) to reach the final concentration of 256-0.0625 μg/mL. The plate was inoculated by the tested microorganisms. The final concentration of bacterial cells was 10^5 for bacteria. […] A drug-free control and a sterility control were included. The plates were incubated for 24 h at 37 °C. […] The experiments were repeated three times.

[3] = tested on: MRSA SA 630; assay: as above; type: cell-based, methicillin-resistant S. aureus; details: Staphylococcus aureus; MRSA SA 630, 24 h, 37 °C
Experimental: as §1

[4] = tested on: MRSA SA 3202; assay: as above; type: cell-based, methicillin-resistant S. aureus; details: Staphylococcus aureus; MRSA SA 3202, 24 h, 37 °C
Experimental: as §1

[5] = tested on: MRSA 63718; assay: as above; type: cell-based, methicillin-resistant S. aureus; details: Staphylococcus aureus; MRSA 63718, 24 h, 37 °C
Experimental: as §1

[6] = tested on: S. aureus ATCC 29213; assay: MTT assay (bacterial viability / respiratory activity); type: cell-based, Staphylococcus aureus; details: S. aureus ATCC 29213, MTT; for S. aureus viability inhibition: at the lowest multiple of MIC with at least 70 % inhibition
Experimental: Compounds were prepared as previously stated and diluted in CaMH broth for S. aureus to achieve the desired final concentrations. S. aureus bacterial suspension in sterile distilled water at 0.5 McFarland was diluted 1:3. Inocula were added to each well by multi-inoculator. Diluted […] in broth free from inhibiting compounds were used as the growth control. All compounds were prepared in duplicate. Plates were incubated at 37 °C for 24 h for S. aureus. After the incubation period, 10 % well volume of MTT (3-(4,5-dimethylthiazol-2-yl)-2,5-diphenyltetrazolium bromide) reagent (Sigma) was mixed into each well and incubated at 37 °C for 1 h for S. aureus. Then 100 μL of 17 % sodium dodecyl sulphate in 40 % dimethylformamide was added to each well. The plates were read at 570 nm. The absorbance readings from the cells grown in the presence of the tested compounds were compared with uninhibited cell growth to determine the relative percent inhibition. The percent inhibition was determined through the MTT assay. The percent viability is calculated through the comparison of a measured value and that of the uninhibited control: Viability = (OD570E/OD570P)×100, where OD570E is the reading from the compound-exposed cells, while OD570P is the reading from the uninhibited cells (positive control). Cytotoxic potential is determined by a percent viability of <70 % [60, 61].
The MTT assay can be used to assess cell growth by measuring respiration.

[7] = Lipophilicity determination by HPLC (capacity factor k, distribution coefficients DpH); type: physicochemical; details: for log k: MeOH 72 % / H2O 28 %, C18; for log D6.5: MeOH 72 % / acetate-buffered saline pH 6.5 28 %; for log D7.4: MeOH 72 % / acetate-buffered saline pH 7.4 28 %
Source text: An HPLC system Agilent 1200 equipped with a DAD detector (Agilent, Santa Clara, CA, USA) was used. A chromatographic column Symmetry® C18 5 μm, 4.6×250 mm, part No. WAT054275 (Waters Corp., Milford, MA, USA) was used. The HPLC separation process was monitored and evaluated with EZChrom Elite software ver. 3.3.2 [53] (Agilent). Isocratic elution by a mixture of MeOH p.a. (72 %) and H2O-HPLC Mili-Q grade (28 %) as a mobile phase was used for the determination of capacity factor k. Isocratic elution by a mixture of MeOH p.a. (72 %) and acetate-buffered saline (pH 7.4 and pH 6.5) (28 %) as a mobile phase was used for the determination of distribution coefficients expressed as D7.4 and D6.5. The total flow of the column was 1.0 mL/min, the injection volume was 20 μL, the column temperature was 40 °C, and the sample temperature was 10 °C. The detection wavelength of 210 nm was chosen. A KI methanolic solution was used for the determination of the dead times (tD). Retention times (tR) were measured in minutes. The capacity factors k were calculated according to the formula k = (tR−tD)/tD, where tR is the retention time of the solute, and tD is the dead time obtained using an unretained analyte. The distribution coefficients DpH were calculated according to the formula DpH = (tR−tD)/tD. Each experiment was repeated three times.

[8] = tested on: Human monocytic leukemia THP-1 cells; parameters: method as in PMID 24075143; details: tested up to 20 μM, ref [29], read-out: LC50 THP-1; cited from earlier work

| SMILES | MIC [2] | MIC [3] | MIC [4] | MIC [5] | Concentration: lowest multiple of MIC with at least 70 % inhibition of viability [6] | log k [7] | log D6.5 [7] | log D7.4 [7] | CC50 at 24 h [1] | S. aureus viability inhibition [6] | CC50 [8] | Antistaphylococcal activity in words [2] |
| --- | --- | --- | --- | --- | --- | --- | --- | --- | --- | --- | --- | --- |
| CC[C@@]1(O)C(=O)OCc2c1cc1n(c2=O)Cc2cc3ccccc3nc2-1 [CMP, camptothecin, reference compound] | – | – | – | – | – | – | – | – | 0.16 ± 0.07 µM | – | – | – |
| O=C(Nc1ccccc1Cl)c1ccc2ccccc2c1O [Compound 2] | > 859 µM | > 859 µM | > 859 µM | > 859 µM | – | 0.6900 | 0.5828 | 0.5836 | – | – | – | – |
| O=C(Nc1cccc(Cl)c1)c1ccc2ccccc2c1O [Compound 3] | > 859 µM | 429 µM (≈ 128 µg/mL) | 107 µM (≈ 31.9 µg/mL) | > 859 µM | – | 0.8556 | 0.7362 | 0.7227 | – | – | > 20 µM | – |
| O=C(Nc1ccc(Cl)cc1)c1ccc2ccccc2c1O [Compound 4] | > 859 µM | 429 µM (≈ 128 µg/mL) | 107 µM (≈ 31.9 µg/mL) | > 859 µM | – | 0.8880 | 0.7640 | 0.7501 | – | – | > 20 µM | – |
| O=C(Nc1cccc(Cl)c1Cl)c1ccc2ccccc2c1O [Compound 5] | 770 µM (≈ 256 µg/mL) | 770 µM (≈ 256 µg/mL) | 770 µM (≈ 256 µg/mL) | 770 µM (≈ 256 µg/mL) | – | 0.6838 | 0.4371 | 0.3870 | – | – | – | – |
| O=C(Nc1cc(Cl)ccc1Cl)c1ccc2ccccc2c1O [Compound 7] | 770 µM (≈ 256 µg/mL) | 770 µM (≈ 256 µg/mL) | 770 µM (≈ 256 µg/mL) | 770 µM (≈ 256 µg/mL) | – | 0.6717 | 0.3949 | 0.3938 | – | – | – | – |
| O=C(Nc1c(Cl)cccc1Cl)c1ccc2ccccc2c1O [Compound 8, N-(2,6-dichlorophenyl)-1-hydroxynaphthalene-2-carboxamide] | 48.2 µM (≈ 16 µg/mL) | 48.2 µM (≈ 16 µg/mL) | 48.2 µM (≈ 16 µg/mL) | 48.2 µM (≈ 16 µg/mL) | – | 0.5729 | 0.4516 | 0.4594 | > 30 µM | – | – | Partial activity |
| O=C(Nc1ccc(Cl)c(Cl)c1)c1ccc2ccccc2c1O [Compound 9] | 770 µM (≈ 256 µg/mL) | 96.3 µM (≈ 32 µg/mL) | 385 µM (≈ 128 µg/mL) | 770 µM (≈ 256 µg/mL) | – | 0.9304 | 0.9048 | 0.8909 | – | – | – | – |

Further lines, with some results ahead:

| MIC [2] | MIC [3] | MIC [4] | MIC [5] | Concentration: lowest multiple of MIC with at least 70 % inhibition of viability [6] | log k [7] | log D6.5 [7] | log D7.4 [7] | SMILES | CC50 at 24 h [1] | S. aureus viability inhibition [6] | CC50 [8] | Antistaphylococcal activity in words [2] |
| --- | --- | --- | --- | --- | --- | --- | --- | --- | --- | --- | --- | --- |
| 5.72 µM (≈ 2 µg/mL) | 45.8 µM (≈ 16 µg/mL) | 45.8 µM (≈ 16 µg/mL) | 45.8 µM (≈ 16 µg/mL) | 8× MIC | – | – | – | CC1(C)S[C@@H]2[C@H](NC(=O)[C@H](N)c3ccccc3)C(=O)N2[C@H]1C(=O)O [APC, ampicillin, reference compound] | 0.8 ± 0.1 µM | 90.0% | – | – |
| > 972 µM | 243 µM (≈ 64 µg/mL) | 121 µM (≈ 31.9 µg/mL) | > 972 µM | – | 0.6084 | 0.5139 | 0.5487 | O=C(Nc1ccccc1)c1ccc2ccccc2c1O [Compound 1] | – | – | > 20 µM | – |
| 770 µM (≈ 256 µg/mL) | 770 µM (≈ 256 µg/mL) | 770 µM (≈ 256 µg/mL) | 770 µM (≈ 256 µg/mL) | – | 0.7387 | 0.5168 | 0.4680 | O=C(Nc1ccc(Cl)cc1Cl)c1ccc2ccccc2c1O [Compound 6] | – | – | – | – |
| 0.37 µM (≈ 0.123 µg/mL) | 0.37 µM (≈ 0.123 µg/mL) | 0.37 µM (≈ 0.123 µg/mL) | 0.37 µM (≈ 0.123 µg/mL) | 16 × MIC | 0.9704 | 0.9531 | 0.9306 | O=C(Nc1cc(Cl)cc(Cl)c1)c1ccc2ccccc2c1O [Compound 10, N-(3,5-dichlorophenyl)-1-hydroxynaphthalene-2-carboxamide] | > 30 µM | 96% and 96.5% | – | significant antistaphylococcal activity |
| 698 µM (≈ 256 µg/mL) | 698 µM (≈ 256 µg/mL) | 698 µM (≈ 256 µg/mL) | 698 µM (≈ 256 µg/mL) | – | 0.6894 | 0.5314 | 0.4864 | O=C(Nc1cc(Cl)c(Cl)cc1Cl)c1ccc2ccccc2c1O [Compound 11] | – | – | – | – |
| 698 µM (≈ 256 µg/mL) | 698 µM (≈ 256 µg/mL) | 698 µM (≈ 256 µg/mL) | 698 µM (≈ 256 µg/mL) | – | 0.8398 | 0.7254 | 0.6825 | O=C(Nc1c(Cl)cc(Cl)cc1Cl)c1ccc2ccccc2c1O [Compound 12] | – | – | – | – |
| 698 µM (≈ 256 µg/mL) | 698 µM (≈ 256 µg/mL) | 698 µM (≈ 256 µg/mL) | 698 µM (≈ 256 µg/mL) | – | 1.2387 | 1.0960 | 1.0561 | O=C(Nc1cc(Cl)c(Cl)c(Cl)c1)c1ccc2ccccc2c1O [Compound 13, N-(3,4,5-trichlorophenyl)-1-hydroxynaphthalene-2--carboxamide] | – | – | – | – |
